Measured values published in ChEMBL document CHEMBL1201862, “PubChem BioAssay data set” (2004).
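96-well plates; 48 h exposure; 5 concentrations. Endpoints by linear interpolation between flanking doses. Not reached: highest tested concentration assigned. GI50 marks 50% less growth.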 Active and inactive are the calls of the source. Cut-off read from the data, not from the text of the source: active = GI50 up to about 1.1 µM and inactive = higher. Where a SMILES comes first, the peptide text is derived from it. [ ]: non-standard residue; d: D form. The star is where a group is joined. ξ: configuration not given here. ξD = NC(CC(=O)O)C(=O)O; Boc = CC(C)(C)OC(=O)*; Aib = CC(C)(N)C(=O)O; OBn = c1ccc(CO*)cc1

Assays:
Assay in all cases: growth of human tumour cells (NCI), 48 h
A498 = system: A498
COLO 205 = system: COLO 205
HOP-62 = system: HOP-62
KM12 = system: KM12
MDA-MB-435 = system: MDA-MB-435
MDA-N = system: MDA-N
Malme-3M = system: Malme-3M
NCI-H23 = system: NCI-H23
NCI-H522 = system: NCI-H522
NCI/ADR-RES = system: NCI/ADR-RES
RPMI-8226 = system: RPMI-8226
SF-539 = system: SF-539
SK-MEL-2 = system: SK-MEL-2
SK-OV-3 = system: SK-OV-3
SW-620 = system: SW-620
T47D = system: T47D
U-251 = system: U-251
UACC-257 = system: UACC-257
UO-31 = system: UO-31

Row | Structure (SMILES) | GI50 (A498) | GI50 (COLO 205) | GI50 (HOP-62) | GI50 (KM12) | GI50 (MDA-MB-435) | GI50 (MDA-N) | GI50 (Malme-3M) | GI50 (NCI-H23) | GI50 (NCI-H522) | GI50 (NCI/ADR-RES) | GI50 (RPMI-8226) | GI50 (SF-539) | GI50 (SK-MEL-2) | GI50 (SK-OV-3) | GI50 (SW-620) | GI50 (T47D) | GI50 (U-251) | GI50 (UACC-257) | GI50 (UO-31)
1 | CC(C)=CCCC(C)C1=C(O)C(=O)C(C)=CC1=O (stereo unspecified) | 18.7 µM (inactive) | 5.75 µM (inactive) | 18.9 µM (inactive) | 18.3 µM (inactive) | 16.7 µM (inactive) | 5.78 µM (inactive) | 9.29 µM (inactive) | 16.7 µM (inactive) | 2.1 µM (inactive) | 12.2 µM (inactive) | 0.838 µM (active) | 19.6 µM (inactive) | 17.7 µM (inactive) | 28.1 µM (inactive) | 5.94 µM (inactive) | 2.07 µM (inactive) | 22.9 µM (inactive) | 9.12 µM (inactive) | 7.82 µM (inactive)
2 | O=C(NCCc1ccccn1)c1ccc2cc(C(=O)N3CC(CCl)c4ccc([N+](=O)[O-])cc43)[nH]c2c1 (stereo unspecified) | > 57.7 µM (inactive) | > 100 µM (inactive) | 13.2 µM (inactive) | > 100 µM (inactive) | > 100 µM (inactive) | > 100 µM (inactive) | 10.9 µM (inactive) | 45.3 µM (inactive) | 9.82 µM (inactive) | 26.1 µM (inactive) | > 100 µM (inactive) | > 43.4 µM (inactive) | > 100 µM (inactive) | 10.6 µM (inactive) | > 100 µM (inactive) | > 100 µM (inactive) | 18.5 µM (inactive) | > 46.3 µM (inactive) | > 49.8 µM (inactive)
3 | CCOC(=O)N/N=C/C1=NN(C(=O)OCC)[S+]([O-])C1C (stereo unspecified) | > 100 µM (inactive) | > 100 µM (inactive) | > 100 µM (inactive) | > 100 µM (inactive) | > 100 µM (inactive) | > 100 µM (inactive) | > 100 µM (inactive) | > 100 µM (inactive) | > 100 µM (inactive) | > 100 µM (inactive) | > 100 µM (inactive) | > 100 µM (inactive) | > 100 µM (inactive) | > 100 µM (inactive) | > 100 µM (inactive) | > 100 µM (inactive) | > 100 µM (inactive) | > 100 µM (inactive) | > 100 µM (inactive)
4 | O=[N+]([O-])c1ccc2ncccc2c1CCc1c([N+](=O)[O-])ccc2ncccc12 | > 100 µM (inactive) | > 100 µM (inactive) | > 100 µM (inactive) | > 100 µM (inactive) | > 100 µM (inactive) | > 100 µM (inactive) | > 100 µM (inactive) | > 100 µM (inactive) | > 100 µM (inactive) | > 100 µM (inactive) | > 100 µM (inactive) | > 100 µM (inactive) | > 100 µM (inactive) | > 100 µM (inactive) | > 100 µM (inactive) | > 100 µM (inactive) | > 100 µM (inactive) | > 100 µM (inactive) | > 100 µM (inactive)
5 | CC(=O)N1c2ccccc2C(C)C1c1[nH]c2ccccc2c1C (stereo unspecified) | 22.7 µM (inactive) | 13.5 µM (inactive) | 19.2 µM (inactive) | 16.1 µM (inactive) | 18.2 µM (inactive) | 19.9 µM (inactive) | 39.7 µM (inactive) | 23.8 µM (inactive) | 15.9 µM (inactive) | 24.1 µM (inactive) | 13 µM (inactive) | 11 µM (inactive) | 17.7 µM (inactive) | 19.7 µM (inactive) | 27.5 µM (inactive) | 18.8 µM (inactive) | 20.5 µM (inactive) | 18.1 µM (inactive) | 17.2 µM (inactive)
6 | CC(C)(C)OC(=O)NC(CC(=O)OCc1ccccc1)C(=O)NC(C)(C)C(N)=O (stereo unspecified) (Boc-[ξD](OBn)-[Aib]-NH2) | > 100 µM (inactive) | > 100 µM (inactive) | > 100 µM (inactive) | > 100 µM (inactive) | > 100 µM (inactive) | > 100 µM (inactive) | > 100 µM (inactive) | > 100 µM (inactive) | > 100 µM (inactive) | > 100 µM (inactive) | > 100 µM (inactive) | > 100 µM (inactive) | > 100 µM (inactive) | > 100 µM (inactive) | > 100 µM (inactive) | > 100 µM (inactive) | > 100 µM (inactive) | > 100 µM (inactive) | > 100 µM (inactive)
7 | Cc1cc(N)c2ccccc2[n+]1CCCCCCCCCC[n+]1c(C)cc(N)c2ccccc21 [DEQUALINIUM CHLORIDE] | 5.19 µM (inactive) | 1.33 µM (inactive) | 1.87 µM (inactive) | 0.69 µM (active) | 0.541 µM (active) | 1.33 µM (inactive) | 3.05 µM (inactive) | 0.41 µM (active) | 0.752 µM (active) | 10.5 µM (inactive) | 0.375 µM (active) | 1.83 µM (inactive) | 1.89 µM (inactive) | 2.39 µM (inactive) | 2.22 µM (inactive) | 0.948 µM (active) | 0.258 µM (active) | 2.91 µM (inactive) | 4.43 µM (inactive)
8 | OC1(c2ccc3ccccc3c2)c2c(c3ccccc3c3ccccc23)C2=NCCN21 (stereo unspecified) | 12.1 µM (inactive) | 1.85 µM (inactive) | 9.33 µM (inactive) | 2.32 µM (inactive) | 2.17 µM (inactive) | 1.96 µM (inactive) | 10.4 µM (inactive) | 12.1 µM (inactive) | 3.85 µM (inactive) | 2.13 µM (inactive) | 2.52 µM (inactive) | 5.45 µM (inactive) | 7.16 µM (inactive) | 6.68 µM (inactive) | 3.34 µM (inactive) | 4.45 µM (inactive) | 5.75 µM (inactive) | 18.5 µM (inactive) | 6.92 µM (inactive)
9 | C=C1CC[C@@]2(C)[C@@H]([C@@H]1C)[C@H]1CC[C@@H]3[C@@]4(C)CC[C@H](O)C(C)(C)[C@@H]4CC[C@@]3(C)[C@]1(C)C[C@@H]2O | 2.16 µM (inactive) | 4.23 µM (inactive) | 2.24 µM (inactive) | 3.65 µM (inactive) | 4.22 µM (inactive) | 8.53 µM (inactive) | 3.25 µM (inactive) | 2.48 µM (inactive) | 1.95 µM (inactive) | 3.27 µM (inactive) | > 100 µM (inactive) | 2.45 µM (inactive) | 3.67 µM (inactive) | 3.79 µM (inactive) | 4.03 µM (inactive) | 2.55 µM (inactive) | 1.73 µM (inactive) | 8.07 µM (inactive) | 2.5 µM (inactive)
10 | CC1(C)CCCCCC(O)C(O)CCC(C)(C)C1=O (stereo unspecified) | > 100 µM (inactive) | > 100 µM (inactive) | > 100 µM (inactive) | > 100 µM (inactive) | > 100 µM (inactive) | > 100 µM (inactive) | > 100 µM (inactive) | > 100 µM (inactive) | 83.9 µM (inactive) | > 100 µM (inactive) | > 100 µM (inactive) | > 100 µM (inactive) | > 100 µM (inactive) | > 100 µM (inactive) | > 100 µM (inactive) | > 100 µM (inactive) | > 100 µM (inactive) | > 100 µM (inactive) | > 100 µM (inactive)
11 | COC(=O)C(Cc1ccc(Oc2cc(CC(NC(=O)c3ccccc3)C(=O)OC)ccc2OC)cc1)NC(=O)c1ccccc1 (stereo unspecified) | 46.3 µM (inactive) | 27 µM (inactive) | 38.3 µM (inactive) | 37.5 µM (inactive) | 18.4 µM (inactive) | 14.2 µM (inactive) | 15.2 µM (inactive) | 22.9 µM (inactive) | 7.29 µM (inactive) | 35.2 µM (inactive) | 3.03 µM (inactive) | 30.1 µM (inactive) | 14.5 µM (inactive) | > 84.9 µM (inactive) | 39.3 µM (inactive) | 6.04 µM (inactive) | 32.8 µM (inactive) | 7.35 µM (inactive) | 9.59 µM (inactive)
12 | O=[N+]([O-])c1cc(-c2nc(-c3ccccc3)c(-c3ccccc3)[nH]2)c(O)c([N+](=O)[O-])c1 | 20.8 µM (inactive) | 21.8 µM (inactive) | 20.4 µM (inactive) | 24.9 µM (inactive) | 32.6 µM (inactive) | 31.1 µM (inactive) | 21.1 µM (inactive) | 16.9 µM (inactive) | 20.2 µM (inactive) | 19.1 µM (inactive) | 27 µM (inactive) | 19.5 µM (inactive) | 19.9 µM (inactive) | 20.2 µM (inactive) | 27.5 µM (inactive) | 20.3 µM (inactive) | 14.8 µM (inactive) | 24.2 µM (inactive) | 18.2 µM (inactive)
13 | C=CCN(CCNS(=O)(=O)c1ccc(C)cc1)S(=O)(=O)c1ccc(C)cc1 | 6.07 µM (inactive) | > 44.5 µM (inactive) | 27.9 µM (inactive) | 57.8 µM (inactive) | > 57.9 µM (inactive) | 46.3 µM (inactive) | 36.1 µM (inactive) | > 50.1 µM (inactive) | 12.9 µM (inactive) | > 60.5 µM (inactive) | 24.6 µM (inactive) | 75.9 µM (inactive) | 34 µM (inactive) | 12.9 µM (inactive) | > 82.2 µM (inactive) | > 51.1 µM (inactive) | > 49.5 µM (inactive) | 8.02 µM (inactive) | > 50.2 µM (inactive)
14 | CC#CC(=O)SCCNC(=O)CC | > 10 µM (inactive) | 3.27 µM (inactive) | > 10 µM (inactive) | > 10 µM (inactive) | 7.24 µM (inactive) | 6.07 µM (inactive) | > 10 µM (inactive) | > 10 µM (inactive) | 1.62 µM (inactive) | > 10 µM (inactive) | > 5.15 µM (inactive) | 9.02 µM (inactive) | > 10 µM (inactive) | > 10 µM (inactive) | 3.01 µM (inactive) | > 6.5 µM (inactive) | > 10 µM (inactive) | > 10 µM (inactive) | > 10 µM (inactive)
